We go through 13 molecules from patent US20100168105A1, “Spirocyclopropyl Piperidine Derivatives” (priority 2007, published 2010).

For assay [1], the target named is human histamine H3 receptors (full-length H3, isoform 445) (Homo sapiens, UniProt Q9Y5N1). As to conditions: hH3 binding IC50 (nM), inhibition of 1.4 nM [3H]-N-α-methylhistamine binding to CHO-K1 membranes expressing human H3, SPA, 1.5 hr.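 Further: scintillation counts read after the 1.5 hr incubation at room temperature with shaking, Imetit serving as reference control.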
Sequence of human histamine H3 receptors (full-length H3, isoform 445) (Q9Y5N1 whole entry, canonical isoform): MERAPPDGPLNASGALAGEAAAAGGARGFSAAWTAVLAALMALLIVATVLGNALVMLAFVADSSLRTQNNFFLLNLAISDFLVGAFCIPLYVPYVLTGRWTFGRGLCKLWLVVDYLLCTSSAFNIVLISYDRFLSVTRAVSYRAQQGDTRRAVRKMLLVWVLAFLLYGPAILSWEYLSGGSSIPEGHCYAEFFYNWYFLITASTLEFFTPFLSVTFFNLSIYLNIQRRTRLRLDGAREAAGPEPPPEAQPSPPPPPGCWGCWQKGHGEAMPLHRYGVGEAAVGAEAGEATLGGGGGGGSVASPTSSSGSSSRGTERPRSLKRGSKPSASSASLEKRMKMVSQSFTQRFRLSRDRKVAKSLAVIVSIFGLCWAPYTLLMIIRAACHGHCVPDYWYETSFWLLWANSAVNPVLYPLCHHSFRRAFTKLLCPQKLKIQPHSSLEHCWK
Experimental: Histamine H3 SPA with the Agonist Radioligand [^3H]—N-α-methylhistamine
Reproducibility of the assay is such that IC50 curves can be generated in singlicate. Single poke (SP) testing was done in triplicate.
Membranes, prepared from CHO-K1 cells stably expressing the human histamine H3 receptor, were obtained from ACS.
Tested formula I compounds were provided as solubilized samples in neat DMSO. Serial dilutions were performed in DMSO.
Plates were read on a Perkin Elmer TopCount. CPM data were used to analyze unless DPM data generated by a quench curve were required.
• 1. 1 mg/ml BSA was added to assay buffer (AB) on day of assay. • 2. […] Buffer volume was split between beads and membranes to allow for polytroning of membranes prior to addition to beads. • a. […] Waited a minimum of 15 minutes prior to adding membranes (See b. below.). • b. […] The homogenized membrane mixture was combined with the beads and a minimum of 30 minutes was waited prior to dispensing to plate. • 3. Formula I compounds: For Single Poke, 2 μl 1 mM of a compound in accordance with formula I was dispensed to Optiplates (triplicate plates) for final concentration of 10 μM. […] Imetit (see below) was used as a control. • 4. […] 5 μl samples were calculated in quadruplicate on the β counter. […] (For IC50s, use final concentration on calculation tab of ABase template.)
• 1. […] 2 μl of the formula I compound dilution was mixed and then transferred into assay plates. DMSO was removed and 2 μl of 100 μM Imetit was added to the wells. • 3. 178 μl bead/membrane mixture was dispensed into the assay plate. • 4. 20 μl [^3H]-NAMH was added with Rapid Plate. The assay plate was sealed and incubated for 1.5 hr on RT shaker at speed ˜6.5. • 5. The assay plate was subsequently centrifuged at 1000 rpm for 10 minutes. • 6. The count was performed on TopCount using one of the 3H SPA H3 Quench programs.
The DPM data was analyzed when tSIS was less than that associated with 70% of full scale on the quench curve (tSIS<25%). Otherwise, CPM data was used.
The target of assay [2] is T1, human Histamine H3 receptor (hH3R) (Homo sapiens, UniProt Q9Y5N1).
T1 construct: expressed in transfected cells; host or cells: CHO cells (membranes)
T1 sequence (Q9Y5N1 whole entry): as the sequence (Q9Y5N1 whole entry, canonical isoform) above
In words: Guanosine 5'-O-(3-[35S]thio)triphosphate [GTPγS] Binding Assay. The class given is biochemical. The note with it: antagonist activity; membranes from CHO cells expressing hH3R, (R)-α-methyl histamine 30 nM, [35S]GTPγS 0.2 nM, 90 minutes. As to the method:
Guanosine 5′-O-(3-[^35]thio)triphosphate [GTPγS] Binding Assay
The GTPγS binding assay can be used to investigate antagonist properties of compounds in CHO cells (Chinese Hamster Ovary) transfected with human Histamine H3 receptor (hH3R). […] To determine antagonist activity, (R)-α-methyl histamine (30 nM) is added in 96 well SPA plate with [^35S]GTPγS (0.2 nM) and various concentration of H3R antagonists. The GTPγS binding assay is started with addition of the mixture membrane/saponine/GDP and incubated for 90 minutes at room temperature. The amount of bound [^35S]GTPγS is determined by using the MicroBeta Trilux counter (PerkinElmer). The percentage of [^35S]GTPγS bound in each sample is calculated as a percentage of that bound control sample incubated in absence of H3 antagonist. Duplicate determinations are obtained for each concentration, and the data are analyzed using ExcelFit4 to obtain the IC50.

`O=C(C1CC12CCN(C1CCOCC1)CC2)N1CCN(C2CCC2)CC1` (centres unmarked) [Example 8, (4-Cyclobutylpiperazin-1-yl)(6-(tetrahydro-2H-pyran-4-yl)-6-azaspiro[2.5]octan-1-yl)methanone]: the concentration for half-maximal inhibition (IC50) was determined as 4.1 nM in assay [1] and 3.66 nM in assay [2].
The corresponding values for `O=C(C1CC12CCN(C1CCOCC1)CC2)N1CCN(C2CC2)CC1` (centres unmarked) [Example 9, (4-Cyclopropylpiperazin-1-yl)(6-(tetrahydro-2H-pyran-4-yl)-6-azaspiro[2.5]octan-1-yl)methanone] are 33.5 nM and 19 nM.
Turning to `CC(C)N1CCN(C(=O)C2CC23CCN(C2CCOCC2)CC3)CC1` (centres unmarked) [Example 10, (4-Isopropylpiperazin-1-yl)(6-(tetrahydro-2H-pyran-4-yl)-6-azaspiro[2.5]octan-1-yl)methanone], the IC50 in assay [1] amounted to 9.02 nM; in assay [2], 3.25 nM.
In the case of `O=C(C1CC12CCN(C1CCOCC1)CC2)N1CCN(C2CCCCCC2)CC1` (centres unmarked) [Example 11, (4-Cycloheptylpiperazin-1-yl)(6-(tetrahydro-2H-pyran-4-yl)-6-azaspiro[2.5]octan-1-yl)methanone], the IC50 in assay [1] amounted to 196 nM; in assay [2], 74 nM.
In the case of `O=C(C1CC12CCN(C1CCOCC1)CC2)N1CCN(C2CCCC2)CC1` (centres unmarked) [Example 12, (4-cyclopentylpiperazin-1-yl)(6-(tetrahydro-2H-pyran-4-yl)-6-azaspiro[2.5]octan-1-yl)methanone], the IC50 turned out to be 4.43 nM in assay [1] and 8.8 nM in assay [2].
In the same order, the values of `O=C(C1CC12CCN(C1CCOCC1)CC2)N1CCN(c2ccncc2)CC1` (centres unmarked) [Example 14, (4-Pyridin-4-yl-piperazin-1-yl)-[6-(tetrahydro-pyran-4-yl)-6-aza-spiro[2.5]oct-1-yl]-methanone] are 26.1 nM and 139 nM.
The corresponding values for `O=C(C1CC12CCN(CCc1ccccc1)CC2)N1CCN(C2CCCCC2)CC1` (centres unmarked) [Example 16, (4-Cyclohexyl-piperazin-1-yl)-(6-phenethyl-6-aza-spiro[2.5]oct-1-yl)-methanone] are 65.2 nM and 16.5 nM.
Turning to `O=C(C1CC12CCN(C1CCCCC1)CC2)N1CCN(C2CCCCC2)CC1` (centres unmarked) [Example 19, (6-Cyclohexyl-6-aza-spiro[2.5]oct-1-yl)-(4-cyclohexyl-piperazin-1-yl)-methanone], the figures for the concentration for half-maximal inhibition (IC50) in assay [1] and in assay [2] were 56.5 nM and 10.1 nM, respectively.
In the case of `CN1CCC(N2CCC3(CC2)CC3C(=O)N2CCN(C3CCCCC3)CC2)CC1` (centres unmarked) [Example 20, (4-Cyclohexyl-piperazin-1-yl)-[6-(1-methyl-piperidin-4-yl)-6-aza-spiro[2.5]oct-1-yl]-methanone], the IC50 in assay [1] was 97.2 nM; in assay [2] it was 22.5 nM.
The corresponding values for `CC(C)N1CCC2(CC1)CC2C(=O)N1CCN(C2CCCCC2)CC1` (centres unmarked) [Example 21, (4-Cyclohexyl-piperazin-1-yl)-(6-isopropyl-6-aza-spiro[2.5]oct-1-yl)-methanone] are 141 nM and 19.3 nM.
In the same order, the values of `O=C(C1CC12CCN(C1CCC1)CC2)N1CCN(C2CCOCC2)CC1` (centres unmarked) [Example 22, (6-Cyclobutyl-6-aza-spiro[2.5]oct-1-yl)-[4-(tetrahydro-pyran-4-yl)-piperazin-1-yl]-methanone] are 209 nM and 67 nM.
In the same order, the values of `O=C(C1CC12CCN(C1CCCSC1)CC2)N1CCN(C2CCC2)CC1` (centres unmarked) [Example 30, (4-Cyclobutyl-piperazin-1-yl)-[6-(tetrahydro-thiopyran-3-yl)-6-aza-spiro[2.5]oct-1-yl]-methanone] are 10.1 nM and 14.3 nM.
On to `O=C(C1CC12CCN(C1CCCCC1)CC2)N1CCN(C2CCC2)CC1` (centres unmarked) [Example 31, (4-Cyclobutyl-piperazin-1-yl)-(6-cyclohexyl-6-aza-spiro[2.5]oct-1-yl)-methanone], for which the IC50 in assay [1] was 11.3 nM; in assay [2] it was 13.5 nM.
